Measured values reported in PubChem BioAssay AID330 (DTP/NCI, 2004).
Values joined by “and” are separate entries in the source; they are usually repeats but may differ in a detail not shown here. Equal values may be shown once. Toxic doses and inconclusive results are not listed. The calls were made as follows: active = survival T/C of 150% or more; inactive = T/C below 125% in these data.

System: P388 leukemia ip, CD2F1 mice, survival T/C
Assay: NCI In Vivo Anticancer Drug Screen. Data for tumor model P388 Leukemia (intraperitoneal) in CD2F1 (CDF1) mice
Conditions: endpoint: median survival time, higher = longer survival
Method in brief: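 Mice carrying the transplanted tumor received test compound or vehicle. Survival was recorded in each group, and the value is the treated-group measurement divided by that of the vehicle-treated control group.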

[1] = dose: 50.0 mg/kg/injection, schedule: Q01DX009 (ip), vehicle: Klucel (hydroxypropylcellulose) (HPC)
[2] = dose: 100.0 mg/kg/injection, schedule: Q01DX009 (ip), vehicle: Klucel (hydroxypropylcellulose) (HPC)
[3] = dose: 200.0 mg/kg/injection, schedule: Q01DX009 (ip), vehicle: Klucel (hydroxypropylcellulose) (HPC)
[4] = dose: 50.0 mg/kg/injection, schedule: Q01DX005 (ip), vehicle: Klucel (hydroxypropylcellulose) (HPC)
[5] = dose: 100.0 mg/kg/injection, schedule: Q04DX002 (ip), vehicle: Klucel (hydroxypropylcellulose) (HPC)
[6] = dose: 200.0 mg/kg/injection, schedule: Q04DX002 (ip), vehicle: Klucel (hydroxypropylcellulose) (HPC)
[7] = dose: 50.0 mg/kg/injection, schedule: Q01DX009 (ip), vehicle: saline
[8] = dose: 100.0 mg/kg/injection, schedule: Q01DX009 (ip), vehicle: saline
[9] = dose: 200.0 mg/kg/injection, schedule: Q01DX009 (ip), vehicle: saline
[10] = dose: 25.0 mg/kg/injection, schedule: Q01DX009 (ip), vehicle: saline with Tween-80
[11] = dose: 50.0 mg/kg/injection, schedule: Q01DX009 (ip), vehicle: saline with Tween-80
[12] = dose: 12.5 mg/kg/injection, schedule: Q01DX009 (ip), vehicle: Klucel (hydroxypropylcellulose) (HPC)
[13] = dose: 25.0 mg/kg/injection, schedule: Q01DX009 (ip), vehicle: Klucel (hydroxypropylcellulose) (HPC)
[14] = dose: 50.0 mg/kg/injection, schedule: Q01DX005 (ip), vehicle: saline with Tween-80
[15] = dose: 100.0 mg/kg/injection, schedule: Q01DX005 (ip), vehicle: saline with Tween-80
[16] = dose: 200.0 mg/kg/injection, schedule: Q01DX005 (ip), vehicle: saline with Tween-80
[17] = dose: 100.0 mg/kg/injection, schedule: Q01DX009 (ip), vehicle: saline with Tween-80
[18] = dose: 200.0 mg/kg/injection, schedule: Q01DX009 (ip), vehicle: saline with Tween-80
[19] = dose: 60.0 mg/kg/injection, schedule: Q01DX005 (ip), vehicle: saline with Tween-80
[20] = dose: 120.0 mg/kg/injection, schedule: Q01DX005 (ip), vehicle: saline with Tween-80
[21] = dose: 0.5 mg/kg/injection, schedule: Q01DX009 (ip), vehicle: Klucel (hydroxypropylcellulose) (HPC)

Measured: T/C

C=C1C(=O)C23CC1CCC2C12COC(OC(=O)CCCCCCCCCCCCCCC)C1C(C)(C)C(O)CC2OC3=O (stereo not given)
inactive: dose: 7.5 mg/kg/injection, schedule: Q01DX009 (ip), vehicle: saline with Tween-80 96 % of control | dose: 15.0 mg/kg/injection, schedule: Q01DX009 (ip), vehicle: saline with Tween-80 99 % of control | dose: 30.0 mg/kg/injection, schedule: Q01DX009 (ip), vehicle: saline with Tween-80 97 % of control | dose: 60.0 mg/kg/injection, schedule: Q01DX009 (ip), vehicle: saline with Tween-80 100 % of control

O=C(Nc1cc(Cl)c([N+](=O)[O-])cc1O)c1ccco1
inactive: [1] 106 % of control | [2] 99 % of control | [3] 98 % of control

CC1(C)C(=O)NC(=O)c2ccccc21
inactive: dose: 12.5 mg/kg/injection, schedule: Q01DX005 (ip), vehicle: Klucel (hydroxypropylcellulose) (HPC) 107 % of control | dose: 25.0 mg/kg/injection, schedule: Q01DX005 (ip), vehicle: Klucel (hydroxypropylcellulose) (HPC) 107 % of control | [4] 100 % of control and 102 % of control

NN1C(=O)/C(=C\c2ccccc2)SC1=S
inactive: [5] 107 % of control | [6] 111 % of control | dose: 400.0 mg/kg/injection, schedule: Q04DX002 (ip), vehicle: Klucel (hydroxypropylcellulose) (HPC) 98 % of control

Cc1cccc(NNC(=S)Nc2ccccc2)c1
inactive: dose: 100.0 mg/kg/injection, schedule: Q04DX003 (ip), vehicle: saline with Tween-80 95 % of control | dose: 200.0 mg/kg/injection, schedule: Q04DX003 (ip), vehicle: saline with Tween-80 100 % of control | dose: 400.0 mg/kg/injection, schedule: Q04DX003 (ip), vehicle: saline with Tween-80 90 % of control

CSc1cccc(NC(=O)Nc2c(C)n(C)n(-c3ccccc3)c2=O)c1
inactive: [1] 92 % of control | [2] 96 % of control | [3] 88 % of control

OCC1C=Cc2ccccc21 (stereo not given)
inactive: [7] 109 % of control | [8] 107 % of control | [9] 114 % of control

O=P(c1ccccc1)(c1ccccc1)c1ccccc1.O=P(c1ccccc1)(c1ccccc1)c1ccccc1.O=P(c1ccccc1)(c1ccccc1)c1ccccc1.O=P(c1ccccc1)(c1ccccc1)c1ccccc1.[Ni+2].[O-][Cl+3]([O-])([O-])O
inactive: dose: 12.5 mg/kg/injection, schedule: Q01DX009 (ip), vehicle: saline with Tween-80 96 % of control | [10] 101 % of control | [11] 90 % of control and 95 % of control

FC(F)(F)C1(C(F)(F)F)[O][Sb]([c]2ccc(Cl)cc2)([c]2ccc(Cl)cc2)([c]2ccc(Cl)cc2)[O]1
inactive: [1] 103 % of control | [2] 88 % of control

OC(CNC1CCCCC1)c1ccccc1 (stereo not given)
inactive: dose: 6.25 mg/kg/injection, schedule: Q01DX009 (ip), vehicle: Klucel (hydroxypropylcellulose) (HPC) 98 % of control | [12] 100 % of control | [13] 95 % of control | [1] 109 % of control

Cc1cccc(=O)[n-]1.Cc1cccc(=O)[n-]1.Cc1cccc(=O)[n-]1.Cc1cccc(=O)[n-]1.Cc1cccc(=O)[n-]1.Cc1cccc(=O)[n-]1.Cc1cccc(=[OH+])[n-]1.Cc1cccc(=[OH+])[n-]1.[Rh+2].[Rh+2].[Rh+2].[Rh+2]
inactive: [5] 104 % of control | [6] 113 % of control

O=C1Nc2ccc3[nH]ncc3c2C1=O
inactive: [14] 101 % of control | [15] 103 % of control | [16] 109 % of control

NN1C(=O)c2ccc3c4c(ccc(c24)C1=O)CC3
inactive: dose: 50.0 mg/kg/injection, schedule: Q01DX009 (ip), vehicle: suspension in saline 91 % of control | dose: 100.0 mg/kg/injection, schedule: Q01DX009 (ip), vehicle: suspension in saline 102 % of control | dose: 200.0 mg/kg/injection, schedule: Q01DX009 (ip), vehicle: suspension in saline 88 % of control | dose: 400.0 mg/kg/injection, schedule: Q01DX009 (ip), vehicle: suspension in saline 99 % of control

O=C(CC([Se]c1ccccc1)c1ccccc1)c1ccccc1 (stereo not given)
inactive: [11] 109 % of control | [17] 109 % of control | [18] 95 % of control

CC(C)(C)OC(=O)NC(CC(Cc1ccccc1)C(=O)O)C(=O)NC(CC(Cc1ccccc1)C(=O)O)C(=O)NC(CC(Cc1ccccc1)C(=O)O)C(=O)NCC(=O)Oc1ccc([N+](=O)[O-])cc1 (stereo not given)
inactive: dose: 12.5 mg/kg/injection, schedule: Q01DX005 (ip), vehicle: saline with Tween-80 99 % of control | dose: 25.0 mg/kg/injection, schedule: Q01DX005 (ip), vehicle: saline with Tween-80 91 % of control | [14] 89 % of control

CN(C)C(=O)ONC(=O)c1ccccc1
inactive: [1] 105 % of control | [2] 109 % of control | [3] 108 % of control

CN1CCN(c2c(C(=O)Nc3ccc([N+](=O)[O-])cc3)cc([N+](=O)[O-])cc2[N+](=O)[O-])CC1
inactive: [19] 92 % of control | [20] 90 % of control

CC(=O)O.CC(=O)O.[S-]CCN1CCOCC1.[Zn+2]
inactive: [12] 100 % of control | [13] 102 % of control

S=C(Nc1ccc(Cl)cc1)SC1CCCCC1
inactive: dose: 25.0 mg/kg/injection, schedule: Q01DX009 (ip), vehicle: saline 100 % of control | [7] 102 % of control and 108 % of control | [8] 118 % of control and 119 % of control | [9] 124 % of control

Nc1nc2c(c(=O)[nH]1)N(C=O)C(CNc1ccc(C(=O)N[C@@H](CCC(=O)O)C(=O)O)cc1)CN2 (stereo not given in full)
inactive: dose: 125.0 mg/kg/injection, schedule: Q04DX003 (ip), vehicle: saline 108 % of control | dose: 250.0 mg/kg/injection, schedule: Q04DX003 (ip), vehicle: saline 99 % of control | dose: 500.0 mg/kg/injection, schedule: Q04DX003 (ip), vehicle: saline 99 % of control

CC(/C=C/c1ccccc1)=N\NC(=O)c1ccc(O)cc1
inactive: [4] 101 % of control | dose: 100.0 mg/kg/injection, schedule: Q01DX005 (ip), vehicle: Klucel (hydroxypropylcellulose) (HPC) 97 % of control | dose: 200.0 mg/kg/injection, schedule: Q01DX005 (ip), vehicle: Klucel (hydroxypropylcellulose) (HPC) 93 % of control

C/C=C(\CC)C(C#N)O[Si](C)(C)C (stereo not given)
inactive: [19] 93 % of control | [20] 98 % of control

CC1(C(=O)O)C2[Se]c3[se]ccc3C2C1(C)C(=O)O (stereo not given)
inactive: [14] 104 % of control | [15] 96 % of control | [16] 102 % of control

O=C(O)c1nc2ccccc2c(=O)[nH]1
inactive: [10] 95 % of control | [11] 96 % of control | [17] 94 % of control | [18] 93 % of control

COc1c(Cl)cc2c(c1OC)N(C)C1N3C(=O)C4(C)SSC3(C(=O)N4C)C(O)C21O (stereo not given)
inactive: dose: 0.03 mg/kg/injection, schedule: Q01DX009 (ip), vehicle: Klucel (hydroxypropylcellulose) (HPC) 100 % of control and 118 % of control | dose: 0.06 mg/kg/injection, schedule: Q01DX009 (ip), vehicle: Klucel (hydroxypropylcellulose) (HPC) 89 % of control | dose: 0.13 mg/kg/injection, schedule: Q01DX009 (ip), vehicle: Klucel (hydroxypropylcellulose) (HPC) 96 % of control | [21] 94 % of control

O=C1COc2ccc(F)cc2N1
inactive: dose: 60.0 mg/kg/injection, schedule: Q01DX005 (ip), vehicle: Klucel (hydroxypropylcellulose) (HPC) 102 % of control and 103 % of control | dose: 120.0 mg/kg/injection, schedule: Q01DX005 (ip), vehicle: Klucel (hydroxypropylcellulose) (HPC) 101 % of control and 96 % of control | dose: 240.0 mg/kg/injection, schedule: Q01DX005 (ip), vehicle: Klucel (hydroxypropylcellulose) (HPC) 101 % of control and 102 % of control

CCc1cccc(CC)c1N1C(=O)C=CC1=O
inactive: [21] 104 % of control | dose: 1.0 mg/kg/injection, schedule: Q01DX009 (ip), vehicle: Klucel (hydroxypropylcellulose) (HPC) 99 % of control | dose: 2.0 mg/kg/injection, schedule: Q01DX009 (ip), vehicle: Klucel (hydroxypropylcellulose) (HPC) 100 % of control | dose: 4.0 mg/kg/injection, schedule: Q01DX009 (ip), vehicle: Klucel (hydroxypropylcellulose) (HPC) 105 % of control | dose: 8.0 mg/kg/injection, schedule: Q01DX009 (ip), vehicle: Klucel (hydroxypropylcellulose) (HPC) 101 % of control | dose: 16.0 mg/kg/injection, schedule: Q01DX009 (ip), vehicle: Klucel (hydroxypropylcellulose) (HPC) 96 % of control
